System: Human neonate fibroblasts (ATCC cell line CCD-1079sk)
Assay: Evaluation of cell membrane permeability function (fluorescence antibody technique, confocal microscopy)
Format: cell-based
Settings: 3.5 μg/mL in liquid culture medium, cultured 2 hours, FIG. 2
Protocol: Human neonate fibroblasts (ATCC cell line CCD-1079sk) were used as the eukaryotic cells, and the cell membrane permeability capability of the 2 samples (constructs for transferring a foreign substance) obtained in Example 1 above was investigated.
More specifically, approximately 2×10^4 cells were cultured on a collagen-coated S-well slide overnight at 37° C. in 5% CO2 using a liquid culture medium (Eagle's MEM medium: comprising 0.1 mM NeAA, 1 mM sodium pyruvate, Earle's BSS (product of GIBCO) with 10% FBS (product of GIBCO).
The purified polypeptides obtained above were added to the cell culture (1.5 μg/mL of the polypeptide of Sample No. 1 and 3.5 μg/mL of the polypeptide of Sample No. 2), and culturing was continued for another 2 hours.
Then the supernatant was removed, the abovementioned D-PBS was added, and the cells were rinsed 3 times therewith on ice. Next, ice-cold methanol was added and the samples were let stand for 10 min at −20° C. to fix the cells. Then the methanol was removed, PBS solution containing 5% normal goat serum (product of MBL) was added, and blocking was carried out at room temperature for 1 hour. […]

Substance: Sample No. 2: Fusion polypeptide (SEQ ID NO: 7): Met, NoLS carrier KKRTLRKNDRKKR fused to N-terminal end of GFP, C-terminal polyhistidine tag
- location of the polypeptide transferred into the cells (nuclear translocation) (anti-GFP antibody staining merged with DAPI): transferred (translocated) to the nucleus and localized therein
- transfer of the polypeptide into the cells (anti-GFP antibody staining): transfer of the polypeptide into the cells can be seen
